Experimental data reported in US8829015B2 (Novartis AG, priority 2005, dated 2014).
Several values for one entry are separate records, joined by “and”; a condition that tells them apart may be missing. Equal values may be shown once. Entries after “also recorded” stand apart in the source; their conditions may differ. Where a name gives a salt, the structure may show the parent alone. Each block holds one molecule with its values, some of them ahead of it.

Assays:
[1] = Equilibration of A-B mixtures of the hydrochloride salt in solvents; assay type: physicochemical
[2] = Stability studies on storage; assay type: physicochemical; conditions: for form after storage: 1 month at 80° C. and 75% relative humidity; for form transition after storage: storage at various relative humidities
[3] = Form conversion on exposure to solvent vapor, air, moisture or room conditions; assay type: physicochemical
[4] = Intrinsic dissolution rate (rotating disk); assay type: physicochemical
Protocol: Intrinsic Dissolution Rate (IDR): Dissolution rate measurements were performed at 37° C. using the rotating disk method (VanKell Instrument). A single rotation speed of 200 rpm was used. For IDR in 0.1N HCl, an 800 mL volume, and for IDR in water, a 200 mL volume were used. The solution was continuously pumped through a UV measuring cell and recycled to the dissolution vessel.
The measurements were carried out on a VanKel instrument using a Cary 100 photometer.

[5] = Equilibration of hydrochloride forms A, B and C with solvents, XRPD; assay type: physicochemical
Source text: Then the solutions were filtered and the solid part investigated by XRPD.

[6] = Solubility by gravimetric techniques at different temperatures, residue by XRPD
physchem = conditions: thermodynamic from solid
[7] = Equilibration of free base forms with solvents, XRPD; assay type: physicochemical; conditions: seven solvents (ethanol absolute, methanol, tetrahydrofuran, water, tetrahydrofuran/water, ethanol/water, methanol/water 1:1), one day, 25° C.
Source text: The solid part was investigated by XRPD.

[8] = in the presence of methanol vapor
[9] = dissolution medium pH 2 (citrate buffer)
[10] = 0.0001N HCl, 25° C., after 24 hours
[11] = 0.001N HCl, 50° C., after 24 hours
[12] = 0.01N HCl, 25° C., after 24 hours
[13] = 0.1N HCl, 50° C., after 24 hours
[14] = Methanol, 50° C., after 24 hours
[15] = Methanol/Water (95/5) v/v, 20° C., 1 hour
[16] = Methanol/Water (95/5) v/v, 45° C., 1 hour
[17] = Methanol/Water (95/5) v/v, −10° C., 24 hours
[18] = Methanol/Water (99.5/0.5) v/v, 20° C., 10 minutes
[19] = Methanol/Water (99.5/0.5) v/v, 20° C., 1 hour
[20] = Methanol/Water (99.5/0.5) v/v, 45° C., 10 minutes
[21] = Methanol/Water (99.5/0.5) v/v, 45° C., 1 hour
[22] = Methanol/Water (99.5/0.5) v/v, 45° C., 24 hours
[23] = Methanol/Water (99.5/0.5) v/v, −10° C., 10 minutes
[24] = Methanol/Water (99.5/0.5) v/v, −10° C., 1 hour
[25] = methanol/water (95/5) v/v, 20 °C, organic solvent or mixture
[26] = methanol/water (95/5) v/v, 45 °C, organic solvent or mixture
[27] = methanol/water (95/5) v/v, -10 °C, organic solvent or mixture
[28] = methanol/water (99.5/0.5) v/v, 20 °C, organic solvent or mixture
[29] = methanol/water (99.5/0.5) v/v, 45 °C, organic solvent or mixture
[30] = dissolution medium HCl 0.0001 N
[31] = 0.001N HCl, 25° C., after 24 hours

- Form after equilibration of A-B mixture ([1]; Methanol 0.25% water, 24 hours 40° C., ? = extra peak (unclear whether new form or free base)): B/?
- Form after equilibration of A-B mixture ([1]; Methanol 10% water, significant enrichment in A after 12 hours): A/B
SMILES: Cc1cn(-c2cc(NC(=O)c3ccc(C)c(Nc4nccc(-c5cccnc5)n4)c3)cc(C(F)(F)F)c2)cn1

- form after storage [2]: showed a mixture with form A
- form conversion [3, 8]: converts to form B
- Intrinsic Dissolution Rate value ([4]; dissolution medium HCl 0.1 N): 0.2508 mg/min/cm^2
- Intrinsic Dissolution Rate value [4, 9]: 0.0250 mg/min/cm^2
SMILES: Cc1cn(-c2cc(NC(=O)c3ccc(C)c(Nc4nccc(-c5cccnc5)n4)c3)cc(C(F)(F)F)c2)cn1 [Amorphous form of the hydrochloride salt]
- form transition after storage [2]: spontaneously crystallizes to form A; also recorded: spontaneously converts to the form A hydrochloride salt

- form transition on equilibration ([5]; methanol, one day, 25° C.): transitioned to form B
- form transition on equilibration ([5]; methanol/HCl 0.1N, 50° C., 1 day): transitioned to form C
- form transition on equilibration ([5]; methanol/water (99:1), 50° C., 1 day): transitioned to form C
- form transition on equilibration ([5]; methanol/water (99.3:0.7), 50° C., 1 day): transitioned to form C
- Solubility [6, 10]: 0.45 mg/mL
- Solubility [6, 11]: 0.79 mg/mL
- Solubility [6, 12]: 0.43 mg/mL
- Solubility [6, 13]: 2.46 mg/mL
- XRPD (form of the solid) [6, 14]: C + B
- Solubility [6, 15]: 28.18 mg/mL
- XRPD (form of the solid) [6, 16]: A + B + C
- Solubility [6, 17]: 4.74 mg/mL
- XRPD (form of the solid) [6, 18]: A + B
- XRPD (form of the solid) [6, 19]: A + B
- XRPD (form of the solid) [6, 20]: A + B
- XRPD (form of the solid) [6, 21]: C + B
- XRPD (form of the solid) [6, 22]: C + B
- Solubility [6, 23]: 24.01 mg/mL
- Solubility [6, 24]: 26.37 mg/mL
- Solubility ([6]; Water, 25° C., after 24 hours): 0.35 mg/mL
- form transition after storage [2]: No form transitions were observed
- form conversion [3, 8]: converts to form B
- solubility at 24 h (physchem; 0.001N HCl, 25 °C, aqueous buffer): 920 µg/mL
- solubility at 24 h (physchem; 0.01N HCl, 50 °C, simulated gastric fluid): 850 µg/mL
- solubility at 24 h (physchem; 0.1N HCl, 25 °C, simulated gastric fluid): 1320 µg/mL
- solubility at 24 h (physchem; methanol, 25 °C, organic solvent or mixture): 13800 µg/mL
- solubility at 24 h (physchem; methanol, 50 °C, organic solvent or mixture): 52500 µg/mL
- solubility at 10 min (physchem; [25]): 25.7 mg/mL
- solubility at 24 h (physchem; [25]): 13100 µg/mL
- solubility at 10 min (physchem; [26]): 46.1 mg/mL
- solubility at 1 h (physchem; [26]): 61.1 mg/mL
- solubility at 10 min (physchem; [27]): 12.3 mg/mL
- solubility at 1 h (physchem; [27]): 14.4 mg/mL
- solubility at 10 min (physchem; [28]): 33.7 mg/mL
- solubility at 24 h (physchem; [28]): 12200 µg/mL
- solubility at 10 min (physchem; [29]): 52.2 mg/mL
- solubility at 1 h (physchem; [29]): 62.5 mg/mL
- solubility at 24 h (physchem; [29]): 41900 µg/mL
- solubility at 24 h (physchem; methanol/water (99.5/0.5) v/v, -10 °C, organic solvent or mixture): 4960 µg/mL
- solubility at 24 h (physchem; water, 50 °C): 1030 µg/mL
- Intrinsic Dissolution Rate value [4, 30]: 0.0003 mg/min/cm^2
- Intrinsic Dissolution Rate value ([4]; dissolution medium HCl 0.001 N): 0.0089 mg/min/cm^2
- Intrinsic Dissolution Rate value ([4]; dissolution medium HCl 0.01 N): 0.0178 mg/min/cm^2
- Intrinsic Dissolution Rate value ([4]; dissolution medium Water): 0.0004 mg/min/cm^2
- Intrinsic Dissolution Rate value [4, 9]: 0.0076 mg/min/cm^2
SMILES: Cc1cn(-c2cc(NC(=O)c3ccc(C)c(Nc4nccc(-c5cccnc5)n4)c3)cc(C(F)(F)F)c2)cn1 [Form A of the hydrochloride salt]
- form transition on equilibration ([5]; methanol, 50° C., 1 day): transitioned to a mixture of forms B and C
- form transition on equilibration ([5]; methanol/HCl 0.1N, one day, 25° C.): transitioned to form B with a small amount of form C
- form transition on equilibration ([5]; methanol/water (99:1), one day, 25° C.): transitioned to form C with a small amount of form B
- form transition on equilibration ([5]; methanol/water (99.3:0.7), one day, 25° C.): transitioned to form B with a small amount of form C
- Intrinsic Dissolution Rate value ([4]; dissolution medium HCl 0.1 N): 0.6778 mg/min/cm^2 and 1.2467 mg/min/cm^2

SMILES: Cc1cn(-c2cc(NC(=O)c3ccc(C)c(Nc4nccc(-c5cccnc5)n4)c3)cc(C(F)(F)F)c2)cn1 [Form A′ of the hydrochloride salt]
- form conversion ([3]; under room conditions): converts within a few minutes under room conditions to form A

- form conversion ([3]; exposed to moisture): converts back to the monohydrate
SMILES: Cc1cn(-c2cc(NC(=O)c3ccc(C)c(Nc4nccc(-c5cccnc5)n4)c3)cc(C(F)(F)F)c2)cn1 [Form B′ of the hydrochloride salt]
- form conversion ([3]; under room conditions): converts within a few minutes under room conditions to form B

- form transition on equilibration ([5]; methanol, 50° C., 1 day): transitioned to form B
- form transition on equilibration ([5]; methanol, one day, 25° C.): transitioned to form B
- form transition on equilibration ([5]; tetrahydrofuran, 50° C., 1 day): to a mixture of forms B and C
- form transition on equilibration ([5]; water, 50° C., 1 day): transitioned to form A
- form transition on equilibration ([5]; water, one day, 25° C.): transitioned to form A
- Solubility [6, 10]: 1.67 mg/mL
- XRPD (form of the solid) [6, 10]: C + A
- Solubility [6, 31]: 1.29 mg/mL
- XRPD (form of the solid) [6, 31]: C + A
- Solubility [6, 11]: 6.72 mg/mL
- Solubility [6, 12]: 1.37 mg/mL
- Solubility ([6]; 0.01N HCl, 50° C., after 24 hours): 1.69 mg/mL
- Solubility ([6]; 0.1N HCl, 25° C., after 24 hours): 2.35 mg/mL
- Solubility [6, 13]: 8.30 mg/mL
- XRPD (form of the solid) [6, 13]: A+
- Solubility ([6]; Methanol, 25° C., after 24 hours): 18.20 mg/mL
- Solubility [6, 14]: 55.26 mg/mL
- Solubility ([6]; Methanol/Water (95/5) v/v, 20° C., 10 minutes): 18.88 mg/mL
- Solubility [6, 15]: 13.03 mg/mL
- Solubility ([6]; Methanol/Water (95/5) v/v, 20° C., 24 hours): 11.76 mg/mL
- Solubility ([6]; Methanol/Water (95/5) v/v, 45° C., 10 minutes): 37.68 mg/mL
- Solubility [6, 16]: 31.15 mg/mL
- Solubility ([6]; Methanol/Water (95/5) v/v, 45° C., 24 hours): 32.26 mg/mL
- Solubility ([6]; Methanol/Water (95/5) v/v, −10° C., 10 minutes): 9.73 mg/mL
- Solubility ([6]; Methanol/Water (95/5) v/v, −10° C., 1 hour): 7.74 mg/mL
- Solubility [6, 17]: 11.00 mg/mL
- Solubility [6, 18]: 24.34 mg/mL
- Solubility [6, 19]: 17.70 mg/mL
- XRPD (form of the solid) [6, 19]: C + B
- Solubility ([6]; Methanol/Water (99.5/0.5) v/v, 20° C., 24 hours): 12.09 mg/mL
- Solubility [6, 20]: 39.86 mg/mL
- Solubility [6, 21]: 46.15 mg/mL
- Solubility [6, 22]: 45.59 mg/mL
- XRPD (form of the solid) [6, 22]: C + B
- Solubility [6, 23]: 11.91 mg/mL
- Solubility [6, 24]: 7.99 mg/mL
- Solubility ([6]; Methanol/Water (99.5/0.5) v/v, −10° C., 24 hours): 6.12 mg/mL
- Solubility ([6]; Water, 25° C., after 24 hours): 1.47 mg/mL
- XRPD (form of the solid) ([6]; Water, 25° C., after 24 hours): C + A
- Solubility ([6]; Water, 50° C., after 24 hours): 1.31 mg/mL
- form after storage [2]: showed a mixture with form A
- form transition after storage [2]: No form transitions were observed
- form conversion [3, 8]: converts to form B
- Intrinsic Dissolution Rate value [4, 30]: 0.0004 mg/min/cm^2
- Intrinsic Dissolution Rate value ([4]; dissolution medium HCl 0.001 N): 0.0057 mg/min/cm^2
- Intrinsic Dissolution Rate value ([4]; dissolution medium HCl 0.01 N): 0.0247 mg/min/cm^2
- Intrinsic Dissolution Rate value ([4]; dissolution medium Water): 0.000 mg/min/cm^2
- Intrinsic Dissolution Rate value [4, 9]: 0.0099 mg/min/cm^2
SMILES: Cc1cn(-c2cc(NC(=O)c3ccc(C)c(Nc4nccc(-c5cccnc5)n4)c3)cc(C(F)(F)F)c2)cn1 [Form C of the hydrochloride salt]
- form transition on equilibration ([5]; ethanol/water (99:1), 50° C., 1 day): transitioned to a mixture of all three forms
- Intrinsic Dissolution Rate value ([4]; dissolution medium HCl 0.1 N): 0.2323 mg/min/cm^2 and 0.3213 mg/min/cm^2

SMILES: Cc1cn(-c2cc(NC(=O)c3ccc(C)c(Nc4nccc(-c5cccnc5)n4)c3)cc(C(F)(F)F)c2)cn1 [Form C′ of the hydrochloride salt]
- form conversion ([3]; under room conditions): converts within a few minutes under room conditions to a mixture of forms B and C

SMILES: Cc1cn(-c2cc(NC(=O)c3ccc(C)c(Nc4nccc(-c5cccnc5)n4)c3)cc(C(F)(F)F)c2)cn1 [Form SB of the hydrochloride salt]
- form conversion ([3]; exposed to air): converts quickly to the monohydrate form B when exposed to air

SMILES: Cc1cn(-c2cc(NC(=O)c3ccc(C)c(Nc4nccc(-c5cccnc5)n4)c3)cc(C(F)(F)F)c2)cn1 [Form SC of the hydrochloride salt]
- form conversion ([3]; exposed to air): converts quickly to the monohydrate form C when exposed to air

- form transition on equilibration [7]: No form transitions occurred
SMILES: Cc1cn(-c2cc(NC(=O)c3ccc(C)c(Nc4nccc(-c5cccnc5)n4)c3)cc(C(F)(F)F)c2)cn1 [form A/form B (1:1)]
